Laboratory results: patent US9206124B2, “Treatment of drug-resistant cancer with 2-aryl-2-(3-indolyl) acetohydroxamates” (New Mexico Technical Research Foundation, priority 2013, dated 2015)

How the values were obtained:
U87 glioblastoma cells = assay: MTT antiproliferative assay, U87; assay type: cell-based, human
Experimental: (§1) As part of the ongoing efforts aimed at identification of compounds active against cancer cells displaying resistance to proapoptotic agents, the selected 2-aryl-2-(3-indolyl)-acetohydroxamates were evaluated for in vitro growth inhibition against a panel of additional cancer cell lines including those resistant to various proapoptotic stimuli, such as human T98G and U87 glioblastoma and human A549 non-small-cell-lung cancer (NSCLC), as well as an apoptosis-sensitive tumor model, such as human Hs683 anaplastic oligodendroglioma, used as a reference. The data reveal that for the most part these compounds retain the single-digit antiproliferatve GI50 values in this challenging cancer cell panel.
(§2) Human cancer cell lines were obtained from the American Type Culture Collection (ATCC, Manassas, Va., USA), the European Collection of Cell Culture (ECACC, Salisbury, UK) and the Deutsche Sammlung von Mikroorganismen and Zellkulturen (DSMZ, Braunschweig, Germany). Human cervical adenocarcinoma HeLa cells were cultured in DMEM supplemented with 10% fetal bovine serum (FBS). Human mammary carcinoma MCF-7 cells were cultured in RPMI supplemented with 10% FBS. The U87 cells (ATCC HTB-14) were cultured in DMEM culture medium, while the A549 cells (DSMZ ACC107) were cultured in RPMI culture medium supplemented with 10% heat-inactivated FBS. The glioblastoma multiforme Hs683 (ATCC HTB-138) and the T98G (ATCC CRL-1690) cell lines were cultivated in DMEM supplemented with 10% FBS. The Human uterine sarcoma MES-SA and MES-SA/Dx5 cells were cultured in RPMI-1640 medium supplemented with 10% FBS with MES SA/Dx5 maintained in the presence of 500 nM Doxorubicin (Sigma). SKMEL-28 cells (ATCC HTB72) and U373 glioblastoma cells (ECACC 08061901) were cultured in RPMI culture medium supplemented with 10% heat-inactivated FBS. Cell culture media were supplemented with 4 mM glutamine (Lonza code BE17-605E), 100 μg/mL gentamicin (Lonza code 17-5182), and penicillin-streptomycin (200 units/ml and 200 μg/ml) (Lonza code 17-602E). Neurosphere culture GBM 031810 was established using known methods and maintained in Neurobasal medium (Invitrogen Carlsbad, Calif.) with B27 supplement (20 ul/ml; Invitrogen), Glutamax (10 ul/ml; Invitrogen), fibroblast growth factor-2 (20 ng/ml; Peprotech, Rocky Hill, N.J., USA), epidermal growth factor (20 ng/ml; Peprotech), heparin (32 IE/ml; Sigma Aldrich, St. Louis, Mo.), and penicillin-streptomycin (1×, Invitrogen). Growth factors and heparin were renewed twice weekly. All cell lines were cultured in T25 flasks, maintained and grown at 37° C., 95% humidity, 5% CO2.
(§3) Antiproliferative properties of the synthesized compounds were evaluated by the MTT assay. All compounds were dissolved in DMSO at a concentration of either 100 mM or 50 mM prior to cell treatment. The cells were trypsinized and seeded at 4×10^3 cells per well into 96-well plates. The cells were grown for 24 h, treated with compounds at concentrations ranging from 0.001 to 100 μM and incubated for 48 h in 200 μL media. 20 μL of MTT reagent in serum free medium (5 mg/mL) was added to each well and incubated further for 2 h. Media was removed and the resulting formazan crystals were re-solubilized in 200 μL of DMSO. A490 was measured using a Molecular Devices Thermomax plate reader. The experiments were performed in quadruplicate and repeated at least twice for each compound per cell line. Cells treated with 0.1% DMSO were used as a negative control; 1 μM phenyl arsine oxide (PAO) was used as a positive control.

[1] = system: MES-SA/Dx5 MDR uterine sarcoma cells; assay: MTT antiproliferative assay, MDR MES-SA/Dx5; assay type: cell-based, human; conditions: Homo sapiens, MES-SA/Dx5; 48 h treatment, MTT, ± SD; MDR line; read-out: GI50 in vitro, MES-SA/Dx5
Experimental: Compared with the intrinsic drug resistance, as described above for such cancers as glioblastoma and melanoma, a large variety of tumors can also develop resistance to anticancer drugs resulting in MDR as explained previously. To assess whether the hydroxamates can overcome this resistance mechanism, selected hydroxamates were tested against MDR cells (Table 4). The MDR uterine sarcoma cell line MES-SA/Dx5 was utilized for this experiment. This cell line was established from the parent uterine sarcoma MES-SA, grown in the presence of increasing concentrations of doxorubicin and known to be resistant to a number of P-gp substrates.
as §2, §3
Selection of the MES-SA/Dx5 cell line was done according to W. G. Harker and B. I. Sikic, Cancer Res. 1985, p. 45, 4091. The cells were split and allowed to adhere overnight. […] The cells were maintained at this DOX concentration until their growth rate reached that of the untreated cells.

[2] = system: Hs683 anaplastic oligodendroglioma cells; assay: MTT antiproliferative assay, Hs683; assay type: cell-based; conditions: Homo sapiens, Hs 683, 48 h treatment, ± SD, apoptosis-sensitive reference, read-out: GI50 in vitro, Hs683
Experimental: as §1, §2, §3

[3] = system: MCF-7 breast adenocarcinoma cells; assay: MTT antiproliferative assay, MCF-7; assay type: cell-based; conditions: Homo sapiens, MCF7, Table 1, 48 h treatment, ± SD, read-out: cell viability GI50, MCF7
Description: (§4) This finding led to an exploration of the SAR analyses by synthesizing the first generation compounds 3 containing diverse substituents at different positions in the 2-aryl-2-(3-indolyl)acetohydroxamate skeleton and testing this series for in vitro growth inhibition using the MTT colorimetric assay against two cell lines, human HeLa cervical and MCF-7 breast adenocarcinomas (Table 1). It emerged from these experiments that the substitution on the benzene ring of the indole moiety (R^2≠H) was not tolerated (e.g., 3abfa and 3acfa), whereas the nitrogen could be derivatized (R^1≠H) with only a small activity drop (e.g., 3bafa vs 3aafa).
as §2, §3

U373 glioblastoma cells = assay: Quantitative videomicroscopy, U373; assay type: cell-based, human; conditions: 25 μM
Experimental: To obtain insight into the effectiveness of 2-aryl-2-(3-indolyl)acetohydroxamates against apoptosis-resistant cancers, computer-assisted phase-contrast microscopy (quantitative videomicroscopy) was employed to observe the phenotypic morphological changes in cancer cells as they are treated with these compounds. […] Based on the phase contrast pictures obtained by means of quantitative videomicroscopy, a global growth ratio (GGR) was calculated, which corresponds to the ratio of the mean number of cells present in a given image captured in the experiment (in this case after 24, 48 and 72 h) to the number of cells present in the first image (at 0 h). The ratio obtained in the 3aafa-treated experiment was then divided by the ratio obtained in the control. […] Thus, the GGR calculations are consistent with the MTT colorimetric data and indicate that it is the cytostatic properties associated with the hydroxamates that are responsible for their antiproliferative effects against apoptosis-resistant cancer cells, at least at relevant concentrations (slightly above the GI50 values).
Human cancer cell lines were obtained from the American Type Culture Collection (ATCC, Manassas, Va., USA), the European Collection of Cell Culture (ECACC, Salisbury, UK) and the Deutsche Sammlung von Mikroorganismen and Zellkulturen (DSMZ, Braunschweig, Germany). […]

[4] = system: HeLa cervical adenocarcinoma cells; assay: MTT antiproliferative assay, HeLa; assay type: cell-based; conditions: Homo sapiens, Table 1, 48 h treatment, ± SD, read-out: cell viability GI50, HeLa
Description: as §4, §2, §3

SMILES: O=C(NO)C(c1ccccc1)c1c(-c2ccc3ccccc3c2)[nH]c2ccccc12 (centres unmarked) [Compound 3aafa]
- activity against cell populations resistant to proapoptotic agents, U87 (U87 glioblastoma cells; FIG. 3, increasing concentration): potent growth inhibitory properties against most of the cells
- GI50 (U87 glioblastoma cells; Homo sapiens, 48 h treatment, MTT, ± SD, read-out: GI50 in vitro, U87): 9.5 ± 0.3 µM
- GI50 [1]: 4 ± 1.1 µM
- GI50 [2]: 8.9 ± 0.4 µM
- GI50 [3]: 3.4 ± 0.3 µM
- phenotypic effect, U373 (U373 glioblastoma cells; slightly exceeding GI50, FIG. 4): inhibits cancer cell proliferation without inducing cell death
- global growth ratio (GGR), U373 (U373 glioblastoma cells; 72 h observation, treated/control): ca. 0.3
- GI50 [4]: 3.6 ± 0.5 µM
